This test has as its target human M4 receptor (Homo sapiens (Human), UniProt P08173). In words: Binding assay: inhibition of radioligand (tritiated N-methylscopolamine) binding to membranes from CHO cells expressing human M4 receptor. Particulars: CHO cell membranes, 1.5 nM tritiated N-methylscopolamine. Here is the method:
Binding affinity (Ki) for the compounds was measured by inhibition of radioligand binding to membranes from CHO cells expressing human M4 receptor. Membranes were prepared by nitrogen cavitation and differential centrifugation as previously described (Hoare et al., Mol. Pharmacol. 2003 March; 63(3): 751-65). The radioligand employed was tritiated N-methylscopolamine, used at a concentration of 1.5 nM. A dose-response of twelve concentrations of compound was used, ranging from […]. The assay buffer was 50 mM HEPES, 100 mM NaCl, 5 mM MgCl2, 1 mM ethylenediaminetetraacetic acid, pH-adjusted to pH 7.4. Membranes, radioligand and compound were incubated together for 90 minutes at 37° C., in a total volume of 150 μL in a 96-well plate. Receptor-bound radioligand was then collected by harvesting the assay over glass fiber filters pretreated with polyethylenimine to trap the cell membranes, using rapid vacuum filtration. Harvesting and radioactivity counting was conducted as previously described (see, e.g., Hoare et al., Mol. Pharmacol. 2003 63(3):751-65); Erratum at Mol. Pharmacol. 2005 July; 68(1): 260).

Structures are written as SMILES.

human M4 receptor, sequence (P08173 whole entry): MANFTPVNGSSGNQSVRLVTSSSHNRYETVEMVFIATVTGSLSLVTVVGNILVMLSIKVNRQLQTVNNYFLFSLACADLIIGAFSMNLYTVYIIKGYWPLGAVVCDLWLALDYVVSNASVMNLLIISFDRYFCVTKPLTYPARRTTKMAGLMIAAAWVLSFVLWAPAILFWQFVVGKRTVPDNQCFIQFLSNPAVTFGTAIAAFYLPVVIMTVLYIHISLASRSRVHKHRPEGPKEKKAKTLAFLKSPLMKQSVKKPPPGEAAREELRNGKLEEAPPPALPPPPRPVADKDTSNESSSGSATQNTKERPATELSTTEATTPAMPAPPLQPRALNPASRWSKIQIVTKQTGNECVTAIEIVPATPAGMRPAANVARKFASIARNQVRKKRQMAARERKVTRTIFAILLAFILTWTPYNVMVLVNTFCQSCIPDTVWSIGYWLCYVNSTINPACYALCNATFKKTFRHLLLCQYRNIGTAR

As to `C[C@@H]1CN(c2ncc3c(n2)CS(=O)(=O)C3)C[C@H](C)N1C(=O)OC1CC2(C1)CN(Cc1ccccc1)C2` [Compound 43, 2-benzyl-2-azaspiro [3.3]heptan-6-yl (2R,6S)-4-dioxo-5H,7H-6λ^6-thieno [3,4-d]pyrimidin-2-yl}-2,6-dimethylpiperazine-1-carboxylate], the inhibition constant (Ki) (usually a dissociation constant, usually derived from enzyme kinetics or from competition with a known ligand) was below 100 nM.

Compound `C[C@@H]1CN(c2ncc(S(C)(=O)=O)cn2)C[C@H](C)N1C(=O)OC1CC2(C1)CN(Cc1ccccc1)C2` [Compound 33, 2-benzyl-2-azaspiro [3.3]heptan-6-yl (2R,6S)-4-(5-methane-sulfonylpyrimidin-2-yl)-2,6-dimethylpiperazine-1-carboxylate] yielded a Ki below 100 nM.

For the compound `C[C@@H]1CN(c2ncc(S(=O)(=O)C3CC3)cn2)[C@@H](C)CN1C(=O)NC1CC2(C1)CN(Cc1ccccc1)C2` [Compound 6, (2R,5S)-N-{2-benzyl-2-azaspiro[3.3]heptan-6-yl}-4-[5-(cyclopropane-sulfonyl)pyrimidin-2-yl]-2,5-dimethylpiperazine-1-carboxamide], the Ki was below 100 nM.

The compound `CC[C@H](O)COc1cnc(N2C[C@@H](C)N(C(=O)OC3CC4(C3)CN(Cc3ccccc3)C4)[C@@H](C)C2)nc1` [Compound 57, 2-benzyl-2-azaspiro [3.3]heptan-6-yl (2R,6S)-4-{5-[(2S)-2-hydroxybutoxy]pyrimidin-2-yl}-2,6-dimethyl-piperazine-1-carboxylate] registered a Ki of 100 to 500 nM.

The compound `CCS(=O)(=O)c1cnc(N2C[C@@H](C)N(C(=O)NC3CC4(C3)CN(Cc3ccccc3)C4)[C@@H](C)C2)nc1` [Compound 2, (2R,6S)-N-{2-benzyl-2-azaspiro[3.3]heptan-6-yl}-4-[5-(ethanesulfonyl)pyrimidin-2-yl]-2,6-dimethylpiperazine-1-carboxamide] came in with a Ki below 100 nM.

In turn, `C[C@@H]1CN(c2ncc(N3CCCC3=O)cn2)C[C@H](C)N1C(=O)OC1CC2(C1)CN(Cc1ccccc1)C2` [Compound 30, 2-benzyl-2-azaspiro [3.3]heptan-6-yl (2R,6S)-2,6-dimethyl-4-[5-(2-oxopyrrolidin-1-yl)pyrimidin-2-yl]piperazine-1-carboxylate] gave an inhibition constant (Ki) of at least 500 nM.

For `C[C@@H]1CN(c2ncc(S(=O)(=O)C3CC3)cn2)[C@@H](C)CN1C(=O)OC1CC2(C1)CN(Cc1ccccc1)C2` [Compound 20, 2-benzyl-2-azaspiro [3.3]heptan-6-yl (2R,5S)-4-[5-(cyclo-propanesulfonyl)pyrimidin-2-yl]-2,5-dimethyl-piperazine-1-carboxylate], the Ki is below 100 nM.

`C[C@@H]1CN(c2ncc(OC[C@@H](C)O)cn2)C[C@H](C)N1C(=O)OC1CC2(C1)CN(Cc1ccccc1)C2` [Compound 56, 2-benzyl-2-azaspiro [3.3]heptan-6-yl (2R,6S)-4-{5-[(2R)-2-hydroxypropoxy]pyrimidin-2-yl}-2,6-dimethyl-piperazine-1-carboxylate] came in with a Ki of 100 to 500 nM.

`C[C@@H]1CN(c2ncc(S(=O)(=O)C3CC3)cn2)CCN1C(=O)NC1CC2(C1)CN(Cc1ccccc1)C2` [Compound 8, (2R)-N-{2-benzyl-2-azaspiro[3.3]heptan-6-yl}-4-[5-(cyclopropanesulfonyl)pyrimidin-2-yl]-2-methylpiperazine-1-carboxamide]: the Ki was 100 to 500 nM.

As to `C[C@@H]1CN(c2ncc3c(n2)CCS3(=O)=O)C[C@H](C)N1C(=O)OC1CC2(C1)CN(Cc1ccccc1)C2` [Compound 39, 2-benzyl-2-azaspiro [3.3]heptan-6-yl (2R,6S)-4-{5,5-dioxo-6H, 7H-5λ^6-thieno[3,2-d]pyrimidin-2-yl}-2,6-dimethylpiperazine-1-carboxylate], the Ki was in the range of 100 to 500 nM.

`COc1cnc(N2C[C@@H](C)N(C(=O)OC3CC4(C3)CN(Cc3ccccc3)C4)[C@@H](C)C2)nc1` [Compound 45, 2-benzyl-2-azaspiro [3.3]heptan-2-yl (2R,6S)-4-(5-methoxypyrimidin-2-yl)-2,6-dimethyl-piperazine-1-carboxylate]: the Ki was at least 500 nM.

On to `C[C@@H]1CN(c2ncc(O)cn2)C[C@H](C)N1C(=O)OC1CC2(C1)CN(Cc1ccccc1)C2` [Compound 51, 2-benzyl-2-azaspiro [3.3]heptan-6-yl (2R,6S)-4-(5-hydroxypyrimidin-2-yl)-2,6-dimethyl-piperazine-1-carboxylate], for which the inhibition constant (Ki) is at least 500 nM.

`C[C@H](O)COc1cnc(N2C[C@@H](C)N(C(=O)OC3CC4(C3)CN(Cc3ccccc3)C4)[C@@H](C)C2)nc1` [Compound 55, 2-benzyl-2-azaspiro [3.3]heptan-6-yl (2R,6S)-4-{5-[(2S)-2-hydroxypropoxy]pyrimidin-2-yl}-2,6-dimethylpiperazine-1-carboxylate] came in with a Ki of at least 500 nM.

The compound `C[C@@H]1CN(c2ncc(S(C)(=O)=O)cn2)C[C@H](C)N1C(=O)OC1CC2(C1)CN(Cc1ccc(F)cc1)C2` [Compound 38, 2-[(4-fluorophenyl)methyl]-2-azaspiro[3.3] heptan-6-yl (2R,6S)-4-(5-methanesulfonylpyrimidin-2-yl)-2,6-dimethyl-piperazine-1-carboxylate] gave a Ki below 100 nM.

Turning to `C[C@@H]1CN(c2ncc(OC3CC3)cn2)C[C@H](C)N1C(=O)OC1CC2(C1)CN(Cc1ccccc1)C2` [Compound 46, 2-benzyl-2-azaspiro [3.3]heptan-6-yl (2R,6S)-4-(5-cyclopropoxy-pyrimidin-2-yl)-2,6-dimethylpiperazine-1-carboxylate], the Ki was at least 500 nM.

For the compound `C[C@@H]1CN(c2ncc(OCC(O)C(F)F)cn2)C[C@H](C)N1C(=O)OC1CC2(C1)CN(Cc1ccccc1)C2` (stereo partly drawn) [Compound 54, 2-benzyl-2-azaspiro [3.3]heptan-6-yl (2R,6S)-4-[5-(3,3-difluoro-2-hydroxypropoxy)pyrimidin-2-yl]-2,6-dimethylpiperazine-1-carboxylate], the inhibitory constant (Ki) is 100 to 500 nM.

Turning to `CCS(=O)(=O)c1cnc(N2C[C@@H](C)N(C(=O)OC3CC4(C3)CN(Cc3ccccc3)C4)[C@H](C)C2)nc1` [Compound 18, 2-benzyl-2-azaspiro [3.3]heptan-6-yl (2R,6R)-4-[5-(ethane-sulfonyl)pyrimidin-2-yl]-2,6-dimethylpiperazine-1-carboxylate], the Ki was in the range of 100 to 500 nM.

The compound `C[C@@H]1CN(c2ncc(S(C)(=O)=O)cn2)CCN1C(=O)OC1CC2(C1)CN(Cc1ccccc1)C2` [Compound 13, 2-benzyl-2-azaspiro [3.3]heptan-6-yl (2R)-4-(5-methanesulfonyl-pyrimidin-2-yl)-2-methylpiperazine-1-carboxylate] yielded an inhibitory constant (Ki) of 100 to 500 nM.

With `C[C@@H]1CN(c2ncc(S(C)(=O)=O)cn2)[C@@H](C)CN1C(=O)OC1CC2(C1)CN(Cc1ccccc1)C2` [Compound 12, 2-benzyl-2-azaspiro [3.3]heptan-6-yl (2R,5S)-4-(5-methane-sulfonylpyrimidin-2-yl)-2,5-dimethylpiperazine-1-carboxylate], the Ki was below 100 nM.

`CC(C)S(=O)(=O)c1cnc(N2C[C@@H](C)N(C(=O)OC3CC4(C3)CN(Cc3ccccc3)C4)[C@@H](C)C2)nc1` [Compound 42, 2-benzyl-2-azaspiro [3.3]heptan-6-yl (2R,6S)-2,6-dimethyl-4-[5-(propane-2-sulfonyl)pyrimidin-2-yl]piperazine-1-carboxylate]: the Ki was in the range of 100 to 500 nM.

The compound `C[C@@H]1CN(c2ncc(S(=O)(=O)C(F)F)cn2)[C@@H](C)CN1C(=O)OC1CC2(C1)CN(Cc1ccccc1)C2` [Compound 24, 2-benzyl-2-azaspiro [3.3]heptan-6-yl (2R,5S)-4-(5-difluoromethanesulfonyl-pyrimidin-2-yl)-2,5-dimethylpiperazine-1-carboxylate] gave a Ki below 100 nM.

`CC[C@@H](O)COc1cnc(N2C[C@@H](C)N(C(=O)OC3CC4(C3)CN(Cc3ccccc3)C4)[C@@H](C)C2)nc1` [Compound 58, 2-benzyl-2-azaspiro [3.3]heptan-6-yl (2R,6S)-4-{5-[(2R)-2-hydroxybutoxy]pyrimidin-2-yl}-2,6-dimethyl-piperazine-1-carboxylate] had a Ki of 100 to 500 nM.

For the compound `C[C@@H]1CN(c2ncc(S(C)(=O)=O)cn2)[C@@H](C)CN1C(=O)NC1CC2(C1)CN(Cc1ccccc1)C2` [Compound 4, (2R,5S)-N-{2-benzyl-2-azaspiro[3.3]heptan-6-yl}-4-(5-methanesulfonyl-pyrimidin-2-yl)-2,5-dimethylpiperazine-1-carboxamide], the Ki was in the range of 100 to 500 nM.

The compound `C[C@@H]1CN(c2ncc(S(=O)(=O)C3CC3)cn2)CCN1C(=O)OC1CC2(C1)CN(Cc1ccccc1)C2` [Compound 22, 2-benzyl-2-azaspiro [3.3]heptan-6-yl (2R)-4-[5-(cyclopropanesulfonyl)pyrimidin-2-yl]-2-methylpiperazine-1-carboxylate] had a Ki below 100 nM.

With `C[C@@H]1CN(c2ncc(S(C)(=O)=O)cn2)[C@@H](C)CN1C(=O)OC1CC2(C1)CN(Cc1ccc(Cl)cc1)C2` [Compound 37, 2-[(4-chlorophenyl)methyl]-2-azaspiro[3.3] heptan-6-yl (2R,5S)-4-(5-methanesulfonylpyrimidin-2-yl)-2,5-dimethyl-piperazine-1-carboxylate], the Ki was below 100 nM.

Turning to `C[C@@H]1CN(c2ncc(OCC(C)(C)O)cn2)C[C@H](C)N1C(=O)OC1CC2(C1)CN(Cc1ccccc1)C2` [Compound 59, 2-benzyl-2-azaspiro [3.3]heptan-6-yl (2R,6S)-4-[5-(2-hydroxy-2-methylpropoxy)pyrimidin-2-yl]-2,6-dimethyl-piperazine-1-carboxylate], the inhibition constant Ki lay within 100 to 500 nM.

The values are drawn from patent publication US20250092022A1, “MUSCARINIC RECEPTOR 4 ANTAGONISTS AND METHODS OF USE” (Neurocrine Biosciences, Inc., priority 2021, published 2025).
